Laboratory results reported in patent US20030036082A1, “Screening methods” (priority 2001, published 2003).

What was measured:
[1] = tested on: DGKδ; assay: DGKδ protein expression in gastrocnemius skeletal muscle by immunoblotting after phlorizin treatment; assay type: in vivo; conditions: GK rats, phlorizin 0.8 g/kg body wt per day s.c. for 4 weeks
Method: (§1) In order to investigate the influence of DGKδ on insulin-stimulated glucose uptake in more detail, DGKδ expression studies and measurements of DGK activity were performed in GK rats, a lean animal model for type 2 diabetes (Goto et al., pp. 301-303 in: Frontiers in Diabetes Research (Shafrir E., Renold, A E, Eds.) London, John Libbey, 1988). Male GK rats (200-250 g) were obtained from the Karolinska Institute, Sweden. Weight-matched male Wistar rats served as controls (B&K Universal, Sollentuna, Sweden). All rats were maintained under a 12-hour light/dark cycle, and had free access to water and standard rodent diet. Four groups of animals were studied: vehicle-treated Wistar rats (n=5), phlorizin-treated Wistar rats (n=6), vehicle-treated GK-rats (n=6) and phlorizin-treated GK-rats (n=6). […]
Portions of the gastrocnemius skeletal muscle (approximately 30 mg) were crushed in liquid N2 and then lysed in ice-cold buffer (137 mM NaCl, 2.7 mM KCl, 1 mM MgCl2, 0.5 mM Na3VO4, 1% Triton X-100, 10% glycerol, 20 mM Tris pH 8.0, […] leupeptin, 0.2 mM PMSF, 10 mM NaF, 10 μg/ml aprotinin). […] The supernatant was removed and protein concentration was determined. […] Proteins were visualized by ECL and quantified by densitometric scanning.

[2] = diabetic GK rats, treatment with phlorizin; cited from earlier work
[3] = tested on: total DGK activity; assay: Octyl glucoside/PS mixed-micelle assay of total DGK activity in gastrocnemius muscle after phlorizin treatment; assay type: in vivo; conditions: GK rats, phlorizin 0.8 g/kg body wt per day s.c. for 4 weeks
Method: as §1, with “diet.” for “diet. Four groups of animals were studied: vehicle-treated Wistar rats (n=5), phlorizin-treated Wistar rats (n=6), vehicle-treated GK-rats (n=6) and phlorizin-treated GK-rats (n=6).”
Portions of the gastrocnemius skeletal muscle (approximately 30 mg) were crushed in liquid nitrogen, homogenized by sonication in ice-cold buffer containing 20 mM Tris-HCl, pH 7.5, 250 mM sucrose, 1 mM EDTA, 1 mM EGTA, 1 mM dithiothreitol (DTT), 1 mM PMSF, a 20 μg/ml concentration of each: leupeptin, pepstatin, aprotinin, and soybean trypsin inhibitor and centrifuged at 12,000×g for 10 min at 4° C. The supernatant was collected and protein concentration was determined.
An octyl glucoside/PS mixed-micelle assay of total DGK activity was performed using [γ-^32P] […] The region containing phosphatidic acid was quantified by phosphoimaging and densitometry.

[4] = tested on: total DGK activity; assay: Reduction of total DGK activity by DGK inhibitor (data not shown); assay type: biochemical
[5] = tested on: epitrochlearis muscle from Wistar rats; assay: 3-O-methyl-glucose transport in isolated epitrochlearis muscle; assay type: cell-based; conditions: 25 μM inhibitor, Wistar rat epitrochlearis muscle
Method: The influence of total DGK activity on insulin-stimulated glucose uptake was assessed by measurements on epitrochlearis muscle from Wistar rats using a specific inhibitor for diacylglycerol kinase, DGK inhibitor II™ (Jang, Y. et al. (2000) Biochem. Pharmacol. 59: 763-772).
Media were prepared from a pre-gassed (95% O2/5% CO2) Krebs Henseleit buffer (KHB) containing 5 mM glucose and 0.1% BSA (RIA grade). Epitrochlearis muscles were incubated (20 min) in a shaking water bath (30° C.) in 2 ml of KHB, supplemented with 20 mM mannitol, with or without 2.4 nM insulin and 25 μM DGK-II inhibitor (Calbiochem). Muscles were transferred to KHB containing 8 mM 3-O-methyl[^3H]glucose (438 μCi/mmol; 1 Ci=[…]) and 12 mM [^14C]mannitol (42 μCi/mmol) and incubated (10 min) with or without insulin and 25 μM of DGKII inhibitor. 3-O-methyl-glucose transport activity was assessed as described (Wallberg-Henriksson et al. (1987) J. Biol. Chem. 262: 7665-7671) and expressed as micromoles per milliliter of intracellular water per hour.

Row | SMILES | DGK content in the muscle (DGKδ protein level, immunoblot densitometry) [1] | blood glucose levels [2] | total DGK activity in muscle [3] | reduction of total DGK activity [4] | decrease of insulin-stimulated glucose transport ([5]; 2.4 nM insulin) | basal glucose transport ([5]; without insulin)
1 | O=C(CCc1ccc(O)cc1)c1c(O)cc(O)cc1O[C@@H]1O[C@H](CO)[C@@H](O)[C@H](O)[C@H]1O [phlorizin, Phlorizin] | increase of DGK content in the muscle to approximately the same values as measured in healthy Wistar rats | brings glucose levels back to normal values | increase of total DGK activity in GK rat muscle upon phlorizin treatment to a level measured in muscle from healthy Wistar rats |  |  | 
2 | O=c1c2ccccc2[nH]c(=S)n1CCN1CCC(=C(c2ccc(F)cc2)c2ccc(F)cc2)CC1 [DGK inhibitor II™] |  |  |  | 70% | approximately 30% | not affected
